Tests used:
[1] = tested on: IL-17A-induced G-CSF production in human normal keratinocyte (NHK); assay: NHK assay: IL-17A-induced G-CSF production in normal human keratinocytes; assay type: cell-based; conditions: 24 h, IL-17A 5 ng/mL, G-CSF by HTRF, average if tested more than once
Outline: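 IC50 derives from G-CSF in supernatants, quantified by HTRF from a standard curve, with CellTiter-Glo viability compared to DMSO control. Before a 24 h, 37°C culture of normal human keratinocytes at 3000–4000 cells/well, compound dilutions were preincubated 1 h at rt with human IL-17A (5 ng/mL final), with 0.2% DMSO and 5% FBS.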

[2] = molecular target: T1, IL-17A(FLAG-Tagged): IL-17RA(His-Tagged) binding (Homo sapiens, UniProt Q16552, K93Q); assay: IL-17A(FLAG-tagged):IL-17RA(His-tagged) binding disruption Eu-HTRF assay, Protocol 1; conditions: FLAG-IL-17A 2.5 nM; average if tested more than once
Source text: IL-17A(FLAG-Tagged): IL-17RA(His-Tagged) Binding Disruption Eu-HTRF Assay
An antibody directed against the FLAG tag of IL-17A (SEQ ID NO: 1) is labeled with the HTRF donor chromophore (Europium-cryptate). IL-17A is present as a dimer that is “locked into” this quaternary structure due to the formation of loop-spanning […] disulfide bridges. The construct of IL-17RA used in the assay excludes the […] portion of the receptor and is fused to a C-terminal 10×His tag (SEQ ID NO:2). An antibody directed against the His tag of the IL-17RA chimera is labeled with the HTRF acceptor chromophore (“D2”). The fluorescence-resonance energy transfer (FRET) depends on the vicinity of the donor chromophore to the acceptor, and interruption of the binding between the IL-17A and IL-17RA causes the reduction/loss of FRET. Therefore, this assay allows to evaluate the compound effect on the binding IL-17A and IL-17RA by monitoring the fluorescence intensity of donor vs acceptor. The assay was run using either Protocol 1 or Protocol 2 as described below.
Protocol 1. 40 nl of 2-fold serial diluted compound solution for total 22 dilution points is added into each well of a 1536-well, white, low-volume, non-binding plate (Greiner #782904), then 2 μl of FLAG tagged IL-17A at 2×final concentration (2.5 nM) in solution of PBS+0.01% Triton-X100 is added to each well. The assay plate is briefly centrifuged then incubated for 1 h at rt. A mixed solution is prepared containing 2×5 nM 10HIS×IL-17RA, 2×2.5 nM Eu-anti-FLAG (CISBIO), 2×5 nM D2-anti-HIS (CISBIO) in PBS+0.01% Triton-X100+200 mM Potassium Fluoride (Sigma 60238) and 2 μl of mix is added to each well of the assay plate. The plate is briefly centrifuged then incubated for 2 h at rt. The HTRF intensities at the wavelength of donor (620 nm) and acceptor (665 nm) are measured using BMG Pherastar. The ratio between intensities at two wavelengths is calculated and plotted against the compound concentration and the data is fitted to a one-site competition model to yield IC50 of the compound.

[3] = molecular target: T1, IL-17A(FLAG-Tagged): IL-17RA(His-Tagged) binding; assay: IL-17A(FLAG-tagged):IL-17RA(His-tagged) binding disruption Eu-HTRF assay, Protocol 2; conditions: FLAG-IL-17A 1 nM; average if tested more than once
Outline: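 FLAG-tagged IL-17A (1 nM final) was preincubated with compound (2-fold serial dilutions, 22 points) for 1 h at rt in PBS + 0.01% Triton X-100. 10×His-IL-17RA, Eu-anti-FLAG and D2-anti-His in buffer containing KF were then added for 2 h at rt. IC50 came from the 665/615 nm HTRF ratio fitted to a one-site competition model.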

T1 sequence (Q16552 with tags, fused parts or gaps K93Q): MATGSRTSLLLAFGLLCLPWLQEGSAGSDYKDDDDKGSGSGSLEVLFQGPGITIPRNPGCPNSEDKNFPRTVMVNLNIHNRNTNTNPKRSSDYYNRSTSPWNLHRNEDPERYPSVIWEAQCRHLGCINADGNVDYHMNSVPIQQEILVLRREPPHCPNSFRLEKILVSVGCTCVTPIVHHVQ

| IC50 [2] | IC50 [3] | Molecule | IC50 ([1]; Homo sapiens, Keratinocyte) | IC50 [1] |
| --- | --- | --- | --- | --- |
| < 0.05 µM | – | CC1(F)CNC(=O)N(Cc2cnn3cc([C@@H](NC(=O)c4nonc4C4CC4)C4CCC(F)(F)CC4)nc3c2)C1 (single isomer, unassigned) [Example 1, 4-Cyclopropyl-N—((S)-(4,4-difluorocyclohexyl)(7-(((R*)-5-fluoro-5-methyl-2-oxotetrahydropyrimidin-1(2H)-yl)methyl)imidazo[1,2-b]pyridazin-2-yl)methyl)-1,2,5-oxadiazole-3-carboxamide] | > 0.1 µM | – |
| 0.05 to 0.1 µM | – | CC1(F)CNC(=O)N(Cc2cnn3cc([C@@H](NC(=O)c4nonc4C4CC4)C4CCC(F)(F)CC4)nc3c2)C1 (single isomer, unassigned) [Example 2, 4-Cyclopropyl-N—((S)-(4,4-difluorocyclohexyl)(7-(((S*)-5-fluoro-5-methyl-2-oxotetrahydropyrimidin-1(2H)-yl)methyl)imidazo[1,2-b]pyridazin-2-yl)methyl)-1,2,5-oxadiazole-3-carboxamide] | – | > 0.1 µM |
| < 0.05 µM | – | O=C(N[C@H](c1cn2ncc(CN3CC(C(F)(F)F)CNC3=O)cc2n1)C1CCC(F)(F)CC1)c1nonc1C1CC1 (single isomer, unassigned) [Example 5, 4-Cyclopropyl-N—((S)-(4,4-difluorocyclohexyl)(7-(((S*)-2-oxo-5-(trifluoromethyl)tetrahydropyrimidin-1(2H)-yl)methyl)imidazo[1,2-b]pyridazin-2-yl)methyl)-1,2,5-oxadiazole-3-carboxamide] | – | 0.05 to 0.1 µM |
| > 0.1 µM | – | O=C(N[C@H](c1cn2ncc(CN3CC(C(F)(F)F)CNC3=O)cc2n1)C1CCC(F)(F)CC1)c1nonc1C1CC1 (single isomer, unassigned) [Example 6, 4-Cyclopropyl-N—((S)-(4,4-difluorocyclohexyl)(7-(((R*)-2-oxo-5-(trifluoromethyl)tetrahydropyrimidin-1(2H)-yl)methyl)imidazo[1,2-b]pyridazin-2-yl)methyl)-1,2,5-oxadiazole-3-carboxamide] | > 0.1 µM | – |
| < 0.05 µM | – | COCC(c1cnn2cc([C@H](COC(C)(C)C(F)(F)F)NC(=O)c3nonc3C)nc2c1)N1CC(F)(F)CNC1=O (single isomer, unassigned) [Example 15, N—((R)-1-(7-((S*)-1-(5,5-Difluoro-2-oxotetrahydropyrimidin-1(2H)-yl)-2-methoxyethyl)imidazo[1,2-b]pyridazin-2-yl)-2-((1,1,1-trifluoro-2-methylpropan-2-yl)oxy)ethyl)-4-methyl-1,2,5-oxadiazole-3-carboxamide] | < 0.05 µM | – |
| < 0.05 µM | – | CC1CNC(=O)N(Cc2cnn3cc([C@@H](NC(=O)c4nonc4C4CC4)C4CCC(F)(F)CC4)nc3c2)C1 (single isomer, unassigned) [Example 28, 4-Cyclopropyl-N—((S)-(4,4-difluorocyclohexyl)(7-(((S*)-5-methyl-2-oxotetrahydropyrimidin-1(2H)-yl)methyl)imidazo[1,2-b]pyridazin-2-yl)methyl)-1,2,5-oxadiazole-3-carboxamide] | > 0.1 µM | – |
| > 0.1 µM | – | CC1CNC(=O)N(Cc2cnn3cc([C@@H](NC(=O)c4nonc4C4CC4)C4CCC(F)(F)CC4)nc3c2)C1 (single isomer, unassigned) [Example 29, 4-Cyclopropyl-N—((S)-(4,4-difluorocyclohexyl)(7-(((R*)-5-methyl-2-oxotetrahydropyrimidin-1(2H)-yl)methyl)imidazo[1,2-b]pyridazin-2-yl)methyl)-1,2,5-oxadiazole-3-carboxamide] | – | > 0.1 µM |
| > 0.1 µM | – | CC(c1cnn2cc([C@@H](NC(=O)c3nonc3C3CC3)C3CCC(F)(F)CC3)nc2c1)N1CC(F)(F)CNC1=O (single isomer, unassigned) [Example 92, 4-Cyclopropyl-N—((S)-(7-((S*)-1-(5,5-difluoro-2-oxotetrahydropyrimidin-1(2H)-yl)ethyl)imidazo[1,2-b]pyridazin-2-yl)(4,4-difluorocyclohexyl)methyl)-1,2,5-oxadiazole-3-carboxamide] | > 0.1 µM | – |
| > 0.1 µM | – | Cc1nonc1C(=O)N[C@H](c1cn2ncc(C(C)N3CC(F)(F)CNC3=O)cc2n1)C1CCC(F)(F)CC1 (single isomer, unassigned) [Example 93, N—((S)-(7-((S*)-1-(5,5-Difluoro-2-oxotetrahydropyrimidin-1(2H)-yl)ethyl)imidazo[1,2-b]pyridazin-2-yl)(4,4-difluorocyclohexyl)methyl)-4-methyl-1,2,5-oxadiazole-3-carboxamide] | > 0.1 µM | – |
| > 0.1 µM | – | CC1CCCN(Cc2cnn3cc([C@@H](NC(=O)c4ccnn4C(C)C)C4CCC(F)(F)CC4)nc3c2)C(=O)N1 (single isomer, unassigned) [Example 94, N—((S)-(4,4-Difluorocyclohexyl)(7-(((R*)-4-methyl-2-oxo-1,3-diazepan-1-yl)methyl)imidazo[1,2-b]pyridazin-2-yl)methyl)-1-isopropyl-1H-pyrazole-5-carboxamide] | > 0.1 µM | – |
| > 0.1 µM | – | CC1CCCN(Cc2cnn3cc([C@@H](NC(=O)c4ccnn4C(C)C)C4CCC(F)(F)CC4)nc3c2)C(=O)N1 (single isomer, unassigned) [Example 95, N—((S)-(4,4-Difluorocyclohexyl)(7-(((S*)-4-methyl-2-oxo-1,3-diazepan-1-yl)methyl)imidazo[1,2-b]pyridazin-2-yl)methyl)-1-isopropyl-1H-pyrazole-5-carboxamide] | – | > 0.1 µM |
| < 0.05 µM | – | CC1CCCN(Cc2cnn3cc([C@@H](NC(=O)c4nonc4C4CC4)C4CCC(F)(F)CC4)nc3c2)C(=O)N1 (single isomer, unassigned) [Example 96, 4-Cyclopropyl-N—((S)-(4,4-difluorocyclohexyl)(7-(((R*)-4-methyl-2-oxo-1,3-diazepan-1-yl)methyl)imidazo[1,2-b]pyridazin-2-yl)methyl)-1,2,5-oxadiazole-3-carboxamide] | > 0.1 µM | – |
| 0.05 to 0.1 µM | – | CC1CCCN(Cc2cnn3cc([C@@H](NC(=O)c4nonc4C4CC4)C4CCC(F)(F)CC4)nc3c2)C(=O)N1 (single isomer, unassigned) [Example 97, 4-Cyclopropyl-N—((S)-(4,4-difluorocyclohexyl)(7-(((S*)-4-methyl-2-oxo-1,3-diazepan-1-yl)methyl)imidazo[1,2-b]pyridazin-2-yl)methyl)-1,2,5-oxadiazole-3-carboxamide] | – | > 0.1 µM |
| < 0.05 µM | – | O=C(N[C@H](c1cn2ncc([C@@H](C3CC3)N3CC(F)(F)CNC3=O)cc2n1)C1CCC(F)(F)CC1)c1nonc1C1CC1 [Example 7, 4-Cyclopropyl-N—((S)-(7-((R)-cyclopropyl(5,5-difluoro-2-oxotetrahydropyrimidin-1(2H)-yl)methyl)imidazo[1,2-b]pyridazin-2-yl)(4,4-difluorocyclohexyl)methyl)-1,2,5-oxadiazole-3-carboxamide] | < 0.05 µM | – |
| – | < 0.05 µM | COC[C@H](c1cnn2cc([C@@H](NC(=O)c3nonc3CC(F)(F)F)C3CCC(F)(F)CC3)nc2c1)N1CC(F)(F)CNC1=O [Example 130, N—((S)-(7-((S)-1-(5,5-Difluoro-2-oxotetrahydropyrimidin-1(2H)-yl)-2-methoxyethyl)imidazo[1,2-b]pyridazin-2-yl)(4,4-difluorocyclohexyl)methyl)-4-(2,2,2-trifluoroethyl)-1,2,5-oxadiazole-3-carboxamide] | < 0.05 µM | – |
| – | < 0.05 µM | N—((S)-1-(7-((S)-2-Cyclopropoxy-1-(5,5-difluoro-2-oxotetrahydropyrimidin-1(2H)-yl-4,4,6,6-d4)ethyl)imidazo[1,2-b]pyridazin-2-yl)-5,5,5-trifluoro-4,4-dimethylpentyl)-1,2,5-oxadiazole-3-carboxamide trifluoroacetate [Example 131] | – | > 0.1 µM |

Source: US12173007B2, “Imidazopyridazine IL-17 inhibitor compounds” (Janssen Pharmaceutica NV, priority 2021, dated 2024)
